Oligonucleotides are written 5' to 3', each unit as a sugar letter and its base; * is a phosphorothioate linkage, no mark a phosphodiester; rarer units and linkages stand in square brackets, end groups in braces. Plain capitals give the bases only. e = 2'-O-(2-methoxyethyl) (MOE); [5mC] = 5-methylcytosine
Tests used:
Assay type in all cases: cell-based, human
[1] = system: IKBKAP mRNA in GM04899 fibroblasts; assay: Exon 20 inclusion in FD patient skin fibroblast line GM04899 (RT-PCR); details: GM04899, kinetin treatment for 3 days, concentration not given; relative to IMR90 cells (100%)
Description: To investigate the effect of ISIS 421992 on patient-derived fibroblasts, the patient skin fibroblast line GM04899 (Coriell Cell Repository) was utilized. The cell line was derived from an individual homozygous for the major FD mutation.
GM04899 was cultured in minimal essential medium (Invitrogen) supplemented with non-essential amino acids (Invitrogen) and 20% (v/v) fetal bovine serum. The cells were grown to 40-50% confluence in 10-cm dishes. Cells were transfected with 2 nM, 5 nM, 25 nM, or 125 nM concentrations of ISIS 421992 using 12 μL Lipofectamine 2000 transfection reagent (Invitrogen). Two days later, cDNA synthesized from total RNA extracted from HEK-293 cells was amplified using the forward primer pCDNAF and reverse primer sequence IKAP21R4 to assay the splicing pattern of expressed RNAs by RT-PCR. To calculate exon 20 inclusion levels, the PCR amplicons were labeled with α^32P-dCTP. The PCR products were then separated by native PAGE, followed by phosphorimage analysis. The band intensities were quantified and values were normalized for the G+C content according to the DNA sequence. Multiple lanes for each condition represent independent experiments.
A batch of cells was treated with solvent (NaOH) only of the kinetin solution as a control. RNA from IMR90, a wild-type normal diploid lung fibroblast cell line was used as positive control. The results are expressed as percent inclusion of exon 20 compared to the exon 20 inclusion (100%) of IKBKAP mRNA in IMR90 cells.

IKAP protein = IKAP protein levels in GM04899 fibroblasts (SDS-PAGE, anti-IKAP antibody, band intensity)
Description: Protein samples were obtained by Trizol extraction and separated by SDS-PAGE. The bands were transferred onto a nitrocellulose membrane and probed with an anti-IKAP antibody (abcam #ab56362) (1:1,000 dilution in 5% milk in TBST) for 12 hrs. The membrane was washed 5 times with TBST for 5 min each and then probed with secondary antibody 800 nm LiCor (1:5,000 in 5% milk in TBST) for 1 hr in the dark. The membrane was subsequently washed 5 times with TBST for 5 min each. The bands were then exposed at 800 nm and band intensity was quantified using an Odyssey (LiCor) instrument. The results are presented in Table 4 as percent increase in band intensity compared to the control oligonucleotide-treated bands.

[2] = system: IKBKAP pre-mRNA (mt19-21 minigene); assay: Exon 20 inclusion in HEK-293 cells harboring the mt19-21 IKBKAP minigene (RT-PCR); details: Table 2 (microwalk experiment); HEK-293 with mt19-21 minigene, 0.007 nmol oligonucleotide by electroporation, RT-PCR two days later
Description: Antisense oligonucleotides were designed targeting a human IKBKAP nucleic acid and were tested for their effects on IKBKAP pre-mRNA in vitro. Together, the overlapping antisense oligonucleotides spanned the entire 74-nucleotide region of the IKBKAP exon 20 sequence, as well as the 100-nucleotide intronic regions immediately upstream and downstream of exon 20. The antisense oligonucleotides are presented in Table 1, and were designed as uniform 2′-O-methoxyethyl ribose (MOE) oligonucleotides with phosphate backbones. Each oligonucleotide is 15 nucleosides in length. All cytosine residues throughout the oligonucleotide are 5-methylcytosines. ‘Start Site’ indicates the 5′-most nucleoside to which the oligonucleotide is targeted in the human gene sequence. “Stop site” indicates the 3′-most nucleoside to which the oligonucleotide is targeted in the human gene sequence. Each oligonucleotide listed in Table 1 is targeted to the human IKBKAP genomic sequence (the complement of GENBANK Accession No NT_008470.16 truncated from nucleotides 13290828 to Ser. No. 13/358,424, designated herein as SEQ ID NO: 1). ISIS 414161 has one mismatch with SEQ ID NO: 1.
Cultured HEK-293 cells harboring the mt19-21 minigene vector construct at a density of 7×10^5 cells per well were transfected using electroporation (Gene Pulsar II apparatus, Bio-Rad) with 0.007 nmol antisense oligonucleotide, as previously described (Hua, Y., et al., 2007. PLoS Biol 5:e73). […] These oligonucleotides served as controls for non-specific effects of uniform MOE oligonucleotides with phosphate backbones. Cells harboring the wt19-21 minigene and the mt19-21 minigene alone were also cultured and were used as controls for exon 20 inclusion levels. Two days later, cDNA synthesized from total RNA extracted from HEK-293 cells was amplified using the forward primer pCDNAF and reverse primer sequence IKAP21R4 to assay the splicing pattern of expressed RNAs by RT-PCR. To calculate exon 20 inclusion levels, the PCR amplicons were labeled with α^32P-dCTP. The PCR products were then separated by native PAGE, followed by phosphorimage analysis on a FUJIFILM FLA-5100 instrument (Fuji Medical Systems USA Inc.). The band intensities were quantified using Multi Gauge software Version 2.3 (FUJIFILM), and values were normalized for the G+C content according to the DNA sequence.
Treatment with antisense oligonucleotides targeting the 3′ and 5′ splice sites caused increased skipping of exon 20.
Additional oligonucleotides were designed targeting the first 30-nucleotide stretch of ISS-40. These oligonucleotides were designed by choosing sequences shifted in one nucleotide increments upstream and downstream (i.e., a “microwalk”) of ISS-40, starting from the +6 position in exon 20. The antisense oligonucleotides are presented in Table 2 and FIG. 4D, and were designed as uniform 2′-O-methoxyethyl ribose (MOE) oligonucleotides with phosphate backbones. Each oligonucleotide is 20 nucleosides in length. All cytosine residues throughout the oligonucleotide are 5-methylcytosines. ‘Start Site’ indicates the 5′-most nucleoside to which the oligonucleotide is targeted in the human gene sequence. “Stop site” indicates the 3′-most nucleoside to which the oligonucleotide is targeted in the human gene sequence. Each oligonucleotide listed in Table 2 is targeted to intron 20 of the human IKBKAP genomic sequence (the complement of GENBANK Accession No NT_008470.16 truncated from nucleotides 13290828 to Ser. No. 13/358,424, designated herein as SEQ ID NO: 1). These oligonucleotides were tested in vitro.
Cultured HEK-293 cells harboring the mt19-21 minigene vector construct at a density of 7×10^5 cells per well were transfected using electroporation (Gene Pulsar II apparatus, Bio-Rad) with 0.007 nmol antisense oligonucleotide, as previously described (Hua, Y., et al., 2007. PLoS Biol 5:e73). […]

Compound	% inclusion (exon 20) [2]	further results
c1coc(CNc2ncnc3nc[nH]c23)c1 [kinetin, 6-furfurylaminopurine, reference compound]		% inclusion of exon 20 [1]: 98%; IKAP protein levels, in words (IKAP protein; GM04899, kinetin, under these conditions): did not increase IKAP protein levels; Percent increase in protein band intensity (IKAP) (IKAP protein; GM04899, kinetin-treated, compared to control oligonucleotide-treated bands): 11%
ISIS 421995: uniform 2′-MOE 20-mer, phosphate backbone; CTAGTCGCAAACAGTACAAT, SEQ ID NO 64, intron 20 (e[5mC]eTeAeGeTe[5mC]eGe[5mC]eAeAeAe[5mC]eAeGeTeAe[5mC]eAeAeT; splice-switching)	92%	
ISIS 421996: uniform 2′-MOE 20-mer, phosphate backbone; ACTAGTCGCAAACAGTACAA, SEQ ID NO 65, intron 20 (eAe[5mC]eTeAeGeTe[5mC]eGe[5mC]eAeAeAe[5mC]eAeGeTeAe[5mC]eAeA; splice-switching)	89%	
ISIS 421997: uniform 2′-MOE 20-mer, phosphate backbone; AACTAGTCGCAAACAGTACA, SEQ ID NO 66, intron 20 (eAeAe[5mC]eTeAeGeTe[5mC]eGe[5mC]eAeAeAe[5mC]eAeGeTeAe[5mC]eA; splice-switching)	81%	
ISIS 421998: uniform 2′-MOE 20-mer, phosphate backbone; TAACTAGTCGCAAACAGTAC, SEQ ID NO 67, intron 20 (eTeAeAe[5mC]eTeAeGeTe[5mC]eGe[5mC]eAeAeAe[5mC]eAeGeTeAe[5mC]; splice-switching)	81%	
ISIS 421999: uniform 2′-MOE 20-mer, phosphate backbone; CTAACTAGTCGCAAACAGTA, SEQ ID NO 68, intron 20 (e[5mC]eTeAeAe[5mC]eTeAeGeTe[5mC]eGe[5mC]eAeAeAe[5mC]eAeGeTeA; splice-switching)	82%	
ISIS 422000: uniform 2′-MOE 20-mer, phosphate backbone; GCTAACTAGTCGCAAACAGT, SEQ ID NO 69, intron 20 (eGe[5mC]eTeAeAe[5mC]eTeAeGeTe[5mC]eGe[5mC]eAeAeAe[5mC]eAeGeT; splice-switching)	63%	

Reference: US11066668B2, “Compositions and methods for modulation of IKBKAP splicing” (Ionis Pharmaceuticals, Inc., priority 2012, dated 2021)
